Results as given in patent publication US20260284020A1, “LATS KINASE INHIBITOR TO TREAT RETINAL DEGENERATION” (Children's Hospital Los Angeles, priority 2023, published 2026).
“Also recorded” adds a separate entry of the source. Where two headings read alike, the source gives them in different places.

Assays:
[1] = Solubility of the drug; assay type: physicochemical
[2] = system: RPE injury by laser photocoagulation in Dutch-belted rabbits; experiment: In vivo laser injury model: fundus photos and OCT imaging; set-up: species or system rabbit; details: listed as LKI; for OCT appearance of RPE layer at laser spots compared to control / pigmentation of laser spots on fundus photos compared to control: intravitreal 50 μL of 15 mM
Source text: Laser photocoagulation was used as a model for RPE injury in vivo. Prior to laser photocoagulation, Dutch-belted rabbits were sedated with ketamine and xylazine. Eyes were anesthetized with topical proparacaine and dilated with phenylephrine and tropicamide. Lubricating drops and gel were applied to prevent desiccation of the cornea.
To evaluate the effect of LATS kinase inhibition on the RPE injury response in vivo, following sedation and pharmacologic dilation, laser photocoagulation was delivered in a 6×6 grid pattern to both eyes with a 532 nm green laser (Iridex Corporation, Mountain View, CA, USA) mounted on an indirect ophthalmoscope. Power was set to 170 mW and pulse duration was set to 40 ms. Following the laser procedure, fundus photos of both eyes were obtained using a 28-diopter lens and smartphone. OCT images of both eyes were obtained on a SPECTRALIS (Heidelberg Engineering, Heidelberg, Germany) imaging system. Fundus photos and OCT images were again obtained at 1- and 4-week time points.
Dutch-belted rabbits were sedated and underwent photocoagulation of both eyes as described above, with the exception of lesion intensity alteration. Instead, laser power was held at 170 mW and pulse duration remained at 40 ms.
(§1) Following the laser procedure, the eyes were anesthetized once more with topical proparacaine. Povidone-iodine was applied to the conjunctiva or sclera using sterile Q-tips. Either 50 μL of 15 mM LATS kinase inhibitor (LKI), or vehicle control, was injected per eye using 1 mL Luer-lock syringe with a 27G 1½ inch needle. The second generation LKI, TDI-011536, was used as a micro-suspension formulation prepared in phosphate buffer solution (PBS; Sigma) supplemented with 0.5% carboxymethyl cellulose (Sigma) and 0.5% Kolliphor P 188 Bio (BASF Pharma). Intravitreal injections containing LKI were administered in the right eye and control injections were administered in the left eye. Injections were administered 1-2 mm posterior to the superotemporal or superonasal limbus and delivery of each compound was confirmed on indirect ophthalmoscopy.
To evaluate the effect of Lats kinase inhibition on the RPE injury response in vivo, 17 Dutch-belted rabbits received photocoagulation procedure to cause focal disruptions of the RPE and photoreceptor layers in a 6×6 grid of laser spots. Following photocoagulation, each animal received an intravitreal injection of 50 μL of 15 mM LKI in the right eye ([…]) and 50 μL vehicle in the left eye (n=17 eyes). Fundus photos and OCT imaging were performed immediately following the laser procedure and at 1- and 4-week time points. Three independent experiments were performed.

[3] = system: Dutch-belted rabbits; experiment: Toxic effects / tolerability of intravitreal injection in vivo; set-up: species or system rabbit
Protocol: as §1

[4] = system: RPE monolayers; experiment: Toxic effects in vitro; assay type: cell-based, human
[5] = system: RPE injury by laser photocoagulation in Dutch-belted rabbits; experiment: In vivo laser injury model: retinal immunohistochemistry, quantification of cell proliferation; set-up: species or system rabbit; details: for percentage of Ki67+ cells in the choroid vs control (in words): 1- or 4-week time points
Protocol: as §1
Eyes used for immunofluorescence staining were processed according to a previously described protocol. Briefly, eyes were immediately placed in 50 mL 4% PFA in PBS on ice. After 15 minutes, eyes were removed from 4% PFA in PBS and the cornea and iris were removed under a dissecting microscope. With the cornea and iris removed, eyes were placed back in 50 mL 4% PFA and agitated overnight at 4° C. The following morning, the lens was removed. Eyes were then placed in 50 mL of 30% sucrose in PBS at 4° C. for cryoprotection. Once cryoprotection was complete, eyes were removed from 30% sucrose solution and embedded in optimal cutting temperature (OCT) compound.
Following embedding, eyes were mounted on a Leica cryostat (Leica Microsystems, Wetzlar, Germany) for sectioning. All retinal sections were 14 μm thickness and attached to a glass slide. A list of materials used can be found in Table 1.
To quantify RPE proliferation at the site of laser injury in vivo, regions 400 μm in width were centered on the outer nuclear layer (ONL) defect. Laser spots with ONL defects <30 μm in diameter, retinal detachments >225 μm, or an adjacent laser spot <200 μm away from the center of the ONL defect were excluded from analysis. Additionally, laser spots with significant tissue folding or tears were excluded. RPE cross-sectional area in μm^2 was obtained using the Wand Tool in QuPath using the RPE65 channel. RPE proliferation was quantified as the number of Ki67+ cells divided by DAPI+ cells within the RPE layer, expressed as a percentage. Choroidal proliferation was quantified as the number of Ki67+ cells divided by DAPI+ cells in the choroid.
To evaluate the effect of LKI on Müller glia at the site of injury, glial cell proliferation was quantified as the number of Ki67/Sox2 doubly positive cells divided by total number of Sox2/DAPI doubly positive cells within the 400 μm laser region, expressed as a percentage.
To evaluate the effect of LKI in undamaged retina, regions 400 μm in width in the peripheral retina were analyzed. The percentages of Ki67+ cells in the RPE layer, Ki67/Sox2 doubly positive cells, and Ki67+ cells in the choroid in unaffected regions were calculated in an identical fashion.
To further evaluate the effect of Lats kinase inhibition on the RPE injury response in vivo, eyes injected with LKI (n=9 eyes) or vehicle (n=8 eyes) from three independent experiments were cryosectioned and immunolabeled with Ki-67, a marker of cell proliferation. Additionally, sections were labeled with RPE65 to visualize RPE, Sox2 to visualize Müller glia, and Dapi to label all cell nuclei. […] RPE cross-sectional area was 14129±5605 μm^2 in LKI laser spots and 6221±914.2 μm^2 in control laser spots (P<0.0001). RPE maximal thickness was 56.36±19.23 μm in LKI laser spots and 23.08±8.46 μm in control laser spots (P<0.0001). Within the RPE layer, there was a significant increase in Ki67+ cells with LKI compared to the control (FIG. 5A, 5D). The percentage of Ki67+ RPE was 8.75±4.22% in LKI laser spots and 1.55±3.21% in control laser spots (P<0.001). […]

[6] = laser spots, 1 week, intravitreal 50 μL of 15 mM, mean±SD
[7] = laser spots, 1 week, listed as LKI

Structure (SMILES): O=C(/N=c1\scc(CO)n1Cc1ccccc1)c1c[nH]c2ncccc12 [TDI-011536]
- solubility (in words) [1]: highly insoluble
- OCT appearance of RPE layer at laser spots compared to control ([2]; 1 week after laser): thickening of the RPE layer with associated shadowing; also recorded: Shadowing (*) was common; also recorded: appeared thicker with increased shadowing
- pigmentation of laser spots on fundus photos compared to control ([2]; 1 week after laser): hyperpigmentation of laser spots; also recorded: increased pigmentation
- OCT appearance of RPE layer at laser spots compared to control ([2]; 4 weeks after laser): more pronounced; also recorded: Shadowing (*) was common; also recorded: significantly increased thickness of the RPE layer
- pigmentation of laser spots on fundus photos compared to control ([2]; 4 weeks after laser): more pronounced; also recorded: robust increase in pigmentation
- persistence of LKI microsuspension (depot) in the eye ([2]; rabbit eye, intravitreal 50 μL of 15 mM microsuspension): visible after 1 week; also recorded: up to a month
- tolerability of intravitreal injection ([3]; animal model): well-tolerated
- toxic effects in vivo ([3]; rabbit, in vivo): no toxic effects
- toxic effects in vitro [4]: No toxic effects
- toxic effects in vitro ([4]; listed as LKI): no toxic effects
- Ki67+ (Sox2/Ki67 doubly positive) Müller glia in undamaged regions (outside of laser spots) ([5]; 1 week, listed as LKI): no Sox2/Ki67++ cells
- Ki67+ cells within the RPE layer in undamaged regions (outside of laser spots) ([5]; 1 week, listed as LKI): no Ki67+ RPE cells
- Ki67+ (Sox2/Ki67 doubly positive) Müller glia in undamaged regions ([5]; 4 weeks, listed as LKI): no Sox2/Ki67++ cells
- Ki67+ cells within the RPE layer in undamaged regions ([5]; 4 weeks, listed as LKI): no Ki67+ RPE cells
- percentage of Ki67+ cells in the choroid vs control (in words) ([5]; laser regions): no significant difference
- RPE cross-sectional area [5, 6]: 14129±5605 μm^2
- RPE maximal thickness [5, 6]: 56.36±19.23 μm
- Ki67+ Sox2+ cells (Müller glia) compared to control (in words) [5, 7]: Sox2+ and Ki67+Müller glia were observed; also recorded: significantly in increased
- RPE cross-sectional area compared to control (in words) [5, 7]: increase in underlying RPE cross-sectional area; also recorded: significantly increased
- percentage of Ki67+ RPE cells compared to control (in words) [5, 7]: increase; also recorded: significantly increased
- Ki67+ cells within the choroid ([5]; laser spots, 1 week, mean±SD): 6.66±5.37%
- percentage of Ki67+ RPE (Ki67+ cells within the RPE layer) ([5]; laser spots, 1 week, mean±SD): 8.75±4.22%
- percentage of Ki67+ Sox2+ cells (Müller glia) ([5]; laser spots, 1 week, mean±SD): 11.00±5.11%
- Ki67+ Sox2+ cells (Müller glia) compared to control (in words) ([5]; laser spots, 4 weeks): no significant difference
- RPE maximal thickness compared to control (in words) ([5]; laser spots, 4 weeks): increase in underlying RPE cross-sectional area and maximal thickness
- percentage of Ki67+ RPE cells compared to control (in words) ([5]; laser spots, 4 weeks): no significant difference
- RPE cross-sectional area ([5]; laser spots, 4 weeks, intravitreal 50 μL of 15 mM, mean±SD): 15800 ± 6530 µm²
- RPE cross-sectional area compared to control (in words) ([5]; laser spots, 4 weeks, listed as LKI): increase in RPE cross-sectional area; also recorded: significantly increased
- Ki67+ cells within the choroid ([5]; laser spots, 4 weeks, mean±SD): 0.39±0.71%
- percentage of Ki67+ RPE (Ki67+ cells within the RPE layer) ([5]; laser spots, 4 weeks, mean±SD): 0.29±0.90%
- percentage of Ki67+ Sox2+ cells (Müller glia) ([5]; laser spots, 4 weeks, mean±SD): 1.23±3.25%
- overall effect of intravitreal LKI microsuspension in the laser injury model (in words) ([5]; rabbits, intravitreal 50 μL of 15 mM microsuspension): extensive RPE proliferation and wound healing without measurable effects on off-target cell types or uninjured regions
- percentage of Ki67+ cells in the choroid vs control (in words) ([5]; undamaged regions): no significant difference
